Laboratory results as given in patent US9757375B2, “Compounds that inhibit human DNA ligases and methods of treating cancer” (University of Maryland, Baltimore, priority 2007, dated 2017).
Like-named read-outs stand apart in the source and are kept apart here. Marks after values point to notes of the source that are not given here.

What was measured:
T4 DNA ligase = target: T1, T4 DNA ligase (Enterobacteria phage T4, UniProt P00970); assay: High-throughput fluorescence-based DNA joining assay, non-specific inhibitor control; assay type: biochemical, bacteriophage T4; settings: for inhibition of T4 DNA ligase, in words: in vitro screen, 100 μmol/L
T1 construct: purchased NEB
T1 sequence (P00970 1-487): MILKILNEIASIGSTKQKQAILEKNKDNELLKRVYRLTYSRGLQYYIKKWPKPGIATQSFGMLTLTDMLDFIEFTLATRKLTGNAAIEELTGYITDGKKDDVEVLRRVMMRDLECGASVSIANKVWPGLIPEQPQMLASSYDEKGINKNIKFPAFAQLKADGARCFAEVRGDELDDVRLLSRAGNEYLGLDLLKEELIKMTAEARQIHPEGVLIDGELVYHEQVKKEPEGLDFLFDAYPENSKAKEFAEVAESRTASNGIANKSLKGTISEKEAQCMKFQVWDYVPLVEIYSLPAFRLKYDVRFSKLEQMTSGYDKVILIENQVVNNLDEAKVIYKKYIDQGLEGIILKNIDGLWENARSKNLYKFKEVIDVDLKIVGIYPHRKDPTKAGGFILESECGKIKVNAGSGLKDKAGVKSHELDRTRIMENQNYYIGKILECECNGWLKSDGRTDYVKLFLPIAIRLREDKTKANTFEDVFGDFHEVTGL
Method in brief: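 This counter-screen used a FRET-based DNA joining assay. Duplicate reactions held 10 pmol nicked DNA substrate and 10 units T4 DNA ligase, with or without 100 μmol/L compound. T4 ligase lacks the DNA-binding domain targeted in silico, so compounds inhibiting it were flagged as non-specific, likely DNA-binding.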

HCT116 and MCF10A cells [1] = assay: Cell proliferation screen, result stated for one or both cell lines; assay type: cell-based, human; settings: in vivo cell culture screen
Experimental: (§1) The ability of the compounds identified by CADD to inhibit proliferation of normal mammary epithelial MCF10A cells and colon carcinoma HCT116 cells was determined using a Biomek FX Laboratory Automation Workstation (Beckman Coulter, Inc., Fullerton, Calif.). On day 0, 20 μl of complete medium containing the appropriate number of cells (150-300) was plated per well of a 384-well tissue plate (Fisher Scientific, Hampton, N.H.) and incubated overnight at 37° C. with 5% CO2 and 90% humidity. Next day, day 1, compounds were prepared by serial dilution with complete medium to yield the concentration 100 μM, and 20 μl was added to each well containing 20 μl of medium and cells yielding the final concentration 50 μM in 40 μl volume. Plates were incubated for additional 3 days (days-2-5) until control cells (0.5% DMSO) reached ˜70-80% confluency. On day 6, 40 μl of lysis/detection solution containing 1.2% Igepal CA-630 (Sigma) and a 1:1000 dilution of SYBR Green I nucleic acid stain (Molecular Probes, Eugene, Oreg.) was added to each well. Following an overnight incubation at 37° C., total fluorescence was measured using a Fluorostar Galaxy plate reader with a 485 nm excitation filter and 520 nm emission filter set (BMG Labtech, Inc., Durham, N.C.). Data was exported to a custom program that determined growth inhibition by dividing each individual fluorescence value by the average of fluorescence values obtained with cells treated with DMSO alone.
(§2) The 192 human DNA ligase inhibitors were screened in parallel for effects on proliferation and the ability to potentiate the effects of several DNA damaging agents using two cell human lines, a colon cancer line HCT116 and a normal breast epithelial cell line MCF10A using a Biomek FX Laboratory Automation Workstation as described (23). The DNA damaging agents used, methyl methanesulfonate (MMS), camptothecin, cis-platinum, 3 aminobenzamide and ionizing radiation, are representatives of classes of agents used to treat cancer. Briefly, HCT116 and MCF10A cells were plated in 96 well plates such that the cultures were about 80% confluent after 5 days incubation. Compounds were added to the cultures at either 15 μM or 50 μM 1 day after plating. After incubation for 3 days, cell lysed in a solution containing 1.2% Igepal CA-630 and SYBR green that stains DNA (1:1000, Molecular Probes, Eugene, Oreg.). Subsequently, fluorescence was measured per well. The studies with DNA damaging agents were performed as follows. […] For ionizing radiation, cells were pre-incubated with the compounds at 50 μM for 1 hour prior to exposure to 2 gray of ionizing radiation. Cultures were incubated for 3 days and then treated as above.

HCT116 cells [2] = assay: Cell proliferation screen (SYBR Green, Biomek FX); assay type: cell-based, human; settings: for inhibition at 50 µM: Homo sapiens, HCT-116, read-out: % growth inhibition HCT116 50 uM; for Growth_Inh % (50 μM) HCT116: percentage of values obtained with DMSO alone
Experimental: as §1, §2

MCF10A cells = assay: Cell proliferation screen (SYBR Green, Biomek FX); assay type: cell-based, human; settings: for inhibition at 50 µM: Homo sapiens, MCF-10A; for Growth_Inh % (50 μM) MCF10A: percentage of values obtained with DMSO alone
Experimental: as §1, §2

HCT116 cells [3] = assay: Screen for potentiation of DNA damaging agents (MMS, camptothecin, cis-platinum, 3 aminobenzamide, ionizing radiation); assay type: cell-based, human; settings: for MMS: Ratios of IC50 HCT116: compound alone vs combination with MMS (100 μM)
Text: as §2

[4] = system: MCF7, HCT116, HeLa, and MCF10A cells; assay: Survival assay on cell panel (FIG. 9); assay type: cell-based, human; settings: for EC50 / cell survival: remark in words: cell line not stated
Text: FIG. 9. […] A, effect of L67 (left) and L189 (right) on the survival of MCF7 (Δ), HCT116 (□), HeLa (⋄), and MCF10A (upsidedown triangle) cells. B, normal breast epithelial MCF10A cells (open symbols) and breast cancer MCF7 cells (filled symbols) in the absence (circles) or presence of 3 μmol/L of L67 (squares) were exposed to increasing concentrations of MMS (left). Normal breast epithelial MCF10A cells (open symbols) and colon cancer HCT116 cells (filled symbols) in the absence (circles) or presence of 20 μmol/L of L189 (squares) were exposed to increasing doses of ionizing radiation (right). C, hLigI (I), hLigIIIα (III), and hLigIV (IV) were detected in extracts (400 μg) of the indicated cell lines by immunoblotting. To control for extract loading β-actin was also detected by immunoblotting.
For survival assays, cells were plated in 6 well plates and grown either in the absence or presence of ligase inhibitors. Where indicated, either MMS (0-50 μM) was added to the medium or the cells were irradiated in a Cs-137 irradiator (0-2.5 Gy). After two weeks, colonies were stained with crystal violet (Sigma) and then counted.

DNA = DNA binding by displacement of ethidium bromide from DNA; settings: EtBr replacement assay; 192 at 0, 50, 100 μM
Experimental: Candidate ligase inhibitors identified by CADD were assayed for their ability to inhibit hLigI and T4 DNA ligase using a high-throughput, fluorescence energy transfer-based DNA joining assay (22). Duplicate reactions (30 μL) containing 10 pmol of nicked DNA substrate and either 0.25 pmol of hLigI or 10 units of T4 DNA ligase were incubated in the presence or absence of 100 μmol/L of the putative inhibitor. DNA binding by the candidate DNA ligase inhibitors was measured by displacement of ethidium bromide from DNA as previously described (30).

HCT116 and MCF10A cells [5] = assay: Cell proliferation screen, result stated for one or both cell lines; assay type: cell-based; settings: Homo sapiens, read-out: IC50 of inhibition of proliferation
[6] = 100 μM, read-out: In vitro % inhib T4 100
[7] = read-out: % activity Inhibition LigT4 100 uM
[8] = 50 μM, read-out: In vivo growth inhb MCF10A % Inhb at 50
[9] = read-out: % growth inhibition MCF10A 50 uM

Structure (SMILES)	inhibition at 100 µM (T4 DNA ligase; [6]) [%]	inhibition at 100 µM (T4 DNA ligase; [7]) [%]	inhibition of cell proliferation, in words (HCT116 and MCF10A cells [1])	In vitro growth inhb HCT116 % Inhb at 50 (μM) (HCT116 cells [2]) [%]	inhibition at 50 µM (HCT116 cells [2]) [%]	inhibition at 50 µM (MCF10A cells; [8]) [%]	inhibition at 50 µM (MCF10A cells; [9]) [%]	EC50 ([4]; Homo sapiens) [µM]	Growth_Inh % (50 μM) MCF10A (MCF10A cells; 50 μM) [%]	Growth_Inh % (50 μM) HCT116 (HCT116 cells [2]) [%]	further results
C/C(O)=C1/C(=O)N(c2nc3ccccc3s2)N=C1c1ccccc1 [Compound 43]	0	0	inhibited cell proliferation	70	70	70	70				
O=C(O)CSc1cc(Cl)c2nonc2c1[N+](=O)[O-] [Compound 64]	18 ± 8	18.4 ± 8.4	inhibited cell proliferation		70	40	40	~50	40		MMS: Ratios of IC50 HCT116 (HCT116 cells [3]; 1 = no sensitization): 2**
O=c1[nH]ncc(N/N=C\c2ccc(O)c([N+](=O)[O-])c2)c1Cl [Compound 82]	14 ± 11	13.9 ± 11.4	inhibited cell proliferation	40	40	70	70	~50	70	40	DNA binding of compound (effect on DNA binding by ethidium bromide) (DNA): had no effect on DNA binding by ethidium bromide; cell survival: remark in words [4]: cytostatic, G1; inhibition of T4 DNA ligase, in words (T4 DNA ligase): inhibit hLigI but not T4 DNA ligase
O=C(Cn1cnc([N+](=O)[O-])n1)N/N=C/c1ccc(O)cc1O [Compound 151]	0		inhibited cell proliferation	70	70	70	70	~10			MMS: Ratios of IC50 HCT116 (HCT116 cells [3]; 1 = no sensitization): 1.7; Radiosensitizers: IC50 ratios HCT116 (HCT116 cells [3]; ionizing radiation): 2; IC50 (HCT116 and MCF10A cells [5]): < 20 µM
O=C1Nc2ccccc2Oc2cc([N+](=O)[O-])cc([N+](=O)[O-])c21 [Compound 180]									70	70	IC50 (HCT116 and MCF10A cells [5]): < 20 µM
CS(=O)(=O)NNC(=O)C(=O)NNc1ccccc1 [Compound 184]			inhibited cell proliferation	40							EC50 [4]: ~10 µM; % activity Inhibition LigT4 100 uM (T4 DNA ligase; 100 uM): 0.42 ± 1.4%; In vitro % inhib T4 100 (μM) (T4 DNA ligase; 100 μM): 1 ± 1%; % growth inhibition HCT116 50 uM (HCT116 cells [2]; 50 uM): 40%; % growth inhibition MCF10A 50 uM (MCF10A cells; 50 uM): 70%; % growth inhibition of MCF10A cells in culture at 50 uM (MCF10A cells; 50 μM): 70%
Nc1nc(S)nc(O)c1/N=C/c1ccccc1 [Compound 189]	3 ± 2	3.2 ± 1.9	inhibited cell proliferation	70	70	70	70	~50	70	70	DNA binding of compound (effect on DNA binding by ethidium bromide) (DNA): had no effect on DNA binding by ethidium bromide; potentiation of the cytotoxic effects of DNA-damaging agents ([4]; L67 3 μmol/L with MMS (MCF7 vs MCF10A), L189 20 μmol/L with ionizing radiation (HCT116 vs MCF10A), FIG. 9B): potentiate the cytotoxic effects of DNA-damaging agents; cytotoxicity (cell survival) ([4]; MCF7, HCT116, HeLa, MCF10A, FIG. 9A): cytotoxic; inhibition of T4 DNA ligase, in words (T4 DNA ligase): inhibit hLigI but not T4 DNA ligase
COc1ccc(-c2cnc3c(O)nc(O)nc3n2)cc1 [Compound 190]	5 ± 1	5.4 ± 0.74	inhibited cell proliferation	40	40	40	40		70	40	
Cc1oc(C(=O)O)cc1CSCc1cc(C(=O)O)c(C)o1 [Compound 197]	24 ± 6	24.4 ± 5.8									cell survival: remark in words [4]: no activity
O=C(c1ccc(O)cc1)c1ccccc1O [Compound 200]	0	0			70		70				IC50 ratios of non- and 3-AB treated cells HCT116 (HCT116 cells [3]; compound alone vs combination with 3-AB (2 mM), 1 = no sensitization): ID (1); MMS: Ratios of IC50 HCT116 (HCT116 cells [3]; 1 = no sensitization): ID (1); cell survival: remark in words [4]: metabolite active
CCCCC(=O)c1ccc(O)cc1O [Compound 213]	0		inhibited cell proliferation	70	70	70	70				
